Results reported in patent US20030091615A1, “Use of betaine to enhance exercise performance” (priority 2001, published 2003).

Test system: male subjects
Test: Randomized placebo-controlled double blind exercise test: rehydration solution, 75 min treadmill run in 30° C. heat, then sprint to volitional exhaustion
Assay type: in vivo, human
Excerpt: Ten male subjects were selected to participate in four experimental tests, described below. The study design was a randomized placebo-controlled double blind test. These tests were identical, except that a different rehydration solution was consumed during each session. The rehydration solutions are:
(a) Non-nutritive KOOL-AID®;
(b) Non-nutritive KOOL-AID® and betaine (5 g/l);
(d) GATORADE® and betaine (5 g/l).
The order of treatment for each subject was randomized.
The following measurements were taken throughout each of the four experimental tests:
1) Hydration variables were measured each day, including urine specific gravity and color, body weight, plasma osmolity.
2) Blood variables were sampled during each trial, including, hematocrit, hemoglobin, osmolality, glucose, lactate.
3) Physiological variables were measured during each trial, such as time to exhaustion (duration of final sprint), heart rate, blood pressure, oxygen consumption, minute ventilation, mean weighted skin temperature, rectal temperature, whole body sweat rate.
4) Perceptual variables were recorded, such as rating of perceived exertion (Borg scale) during the exercise test, thermal stress during the exercise test, thirst sensation during the exercise test.
Each subject participated in four experimental tests, performed at the same time of day for each subject, using the same posture at each stage of testing. Experimental tests were randomized. Trials were conducted in an environmental chamber controlled at 30° C.
When they arrived at the test center at 7:00 a.m., the body weight was measured, a blood sample was taken and the specific gravity of the urine was measured. In general, the subjects were mildly dehydrated, losing approximately 1% body weight. […] Subsequently, thereto, they then entered an environmental chamber which was maintained at a temperature of 30° C. and they stood for thirty minutes to effect fluid and thermal equilibration.
Various measurements were taken of each subject including blood pressure, urine specific gravity, body weight, blood pressure, plasma, osmolality and a blood sample when in the environmental chamber prior to the test. Each then performed cycling and walking exercise for 60-90 minutes at 50-55% VO2max so that they each lost about 3% of body weight.
At about 9:30 a.m., they consumed one of the above fluids.
The total volume was ingested in five equal portions over 25 minutes. (This increased the body weight change to a −1.5% level). They each stood an additional twenty minutes to allow gastric emptying. Then they began a treadmill run for 75 minutes at 65% VO2max. They finished the exercise in the heat by a sprinting to volitional exhaustion at a treadmill pace that elicits 90% VO2max. At the conclusion, they stood in the environmental chamber for additional measurements during a 15 minute recovery period. They left the chamber, then ate a meal and drank fluids.
The test was repeated for each person three more times, except each time they ingested a different one of the fluids so that at the end of the test, each subject had ingested each one of the four fluids. Subjects were instructed to match the diet they ate before the initial experiment, during the three subsequent trials. […]

In the case of `C[N+](C)(C)CC(=O)[O-]` [betaine, trimethylglycine], the “increased plasma lactate levels 15 minutes after the sprint” value (GATORADE trials, betaine 5 g/l) is reported as 17%, the “increased plasma lactate levels immediately after the sprint” value (GATORADE trials, betaine 5 g/l) is reported as 10% and the “greater oxygen uptake (aerobic metabolism) while sprinting” value (GATORADE trials, betaine 5 g/l vs GATORADE alone) is reported as 6%. The “increased plasma lactate levels after the sprint” value (KOOL-AID trials, betaine 5 g/l) was “This effect was not seen” and the “greater oxygen uptake (aerobic metabolism) while sprinting” value (KOOL-AID trials, betaine 5 g/l vs KOOL-AID alone) was “This effect was not seen”.
